The target in this assay is 11-beta-hydroxysteroid dehydrogenase 1 (Homo sapiens, UniProt P28845). In words: Inhibition of human 11beta-HSD1 using [3H]cortisone as substrate assessed as production of [3H]-cortisol by scintillation proximity assay.

These results are taken from ChEMBL document CHEMBL2034897, “Discovery and optimization of benzenesulfonanilide derivatives as a novel class of 11β-HSD1 inhibitors” (Bioorg Med Chem Lett, 2012).

Sequence of 11-beta-hydroxysteroid dehydrogenase 1 (P28845 whole entry): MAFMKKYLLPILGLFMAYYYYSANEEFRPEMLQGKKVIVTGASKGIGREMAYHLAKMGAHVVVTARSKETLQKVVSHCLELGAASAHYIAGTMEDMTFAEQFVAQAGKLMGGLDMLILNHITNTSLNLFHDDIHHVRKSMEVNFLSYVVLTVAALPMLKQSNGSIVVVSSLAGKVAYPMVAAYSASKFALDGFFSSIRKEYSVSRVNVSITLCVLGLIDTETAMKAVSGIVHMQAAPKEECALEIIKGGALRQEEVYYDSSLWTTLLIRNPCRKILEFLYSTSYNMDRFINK

`CC(O)(c1ccc(NS(=O)(=O)c2ccccc2)cc1)C(F)(F)F` (racemic): the IC50 is > 1000 nM. Consider `CN(c1ccc(C(C)(O)C(F)(F)F)cc1)S(=O)(=O)c1ccccc1` (racemic), for which the IC50 was > 1000 nM.
